Values quoted from earlier work in patent publication US20240293347A1, “COMPOSITION AND METHODS OF TREATMENT USING TRANSDERMAL HORMONE SUPPLEMENTATION” (Xygenyx Inc., priority 2023, published 2024).

Legend:
[1] = used as penetration enhancer for transdermal drugs
[2] = in the human body

**Q.** For `CC(C)[C@@H]1CC[C@@H](C)C[C@H]1O` [Menthol], which “increase of drug uptake via the transdermal route (factor)” value [1] is on record?
**A.** ≥ 10

**Q.** For `CC12CCC(CC1)C(C)(C)O2` [eucalyptol, 1,8-epoxy-p-menthane], which “increase of drug uptake via the transdermal route (factor)” value [1] is on record?
**A.** more than 10

**Q.** For “HGH: hormone comprising a peptide chain that is synthesized in the pituitary gland”, which biological half-life [2] is on record?
**A.** 10-20 minutes
